# Results: patent US20120308993A1 (priority 2009, published 2012)
# “And” between values parts separate entries of the source, which are not always exact repeats. Equal entries are not always repeated.
# Assays:
# [1] = system: Influenza A (H1N1) 2009; settings: in vivo
# [2] = system: Influenza A (H1N1) 2009; settings: in vivo; remark: listed apart in the source
smiles,measurement,setting,value
"CCOC(=O)C1=C[C@@H](OC(CC)CC)[C@H](NC(C)=O)[C@@H](N)C1 [Oseltamivir, oseltamivir]","fever settled, day of illness",[1],5
same,outcome of close contacts given oseltamivir prophylaxis,[1],remained well
same,RT-PCR,[2],positive
same,ct value,[2],24 and 32 and 35
